Experimental data: PMC6006479, “Minimization of dynamic effects in the evolution of dihydrofolate reductase” (Chemical Science, 2016)

Target: T1, MpDHFR (Moritella profunda, UniProt Q70YQ6)
T1 construct: gene dyrA; purified recombinant enzyme made in minimal medium; 'light' form with natural abundance isotopes; construct details only in supplement; monomeric
Test: steady-state kinetics
Type: biochemical
Conditions: light (natural abundance) enzyme, pH 7.0

T1 sequence (Q70YQ6 entry or part of it): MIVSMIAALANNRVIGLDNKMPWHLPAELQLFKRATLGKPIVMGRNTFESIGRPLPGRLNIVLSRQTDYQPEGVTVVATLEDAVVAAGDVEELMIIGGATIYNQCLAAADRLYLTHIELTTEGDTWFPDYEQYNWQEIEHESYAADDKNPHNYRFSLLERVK

SMILES	Michaelis constant (co-substrate NADPH)	Michaelis constant (co-substrate dihydrofolate)
Nc1nc2c(c(=O)[nH]1)N=C(CNc1ccc(C(=O)N[C@@H](CCC(=O)O)C(=O)O)cc1)CN2 [DHF]	The Michaelis constants for NADPH and DHF are essentially the same for all these enzymes	
NC(=O)C1=CN([C@@H]2O[C@H](COP(=O)(O)OP(=O)(O)OC[C@H]3O[C@@H](n4cnc5c(N)ncnc54)[C@H](OP(=O)(O)O)[C@@H]3O)[C@@H](O)[C@H]2O)C=CC1 [NADPH]		The Michaelis constants for NADPH and DHF are essentially the same for all these enzymes
